Assay results taken from the supplement of paper PMC10307832.

Columns and labels:
Experiment in all cases: relative viability (nuclei count vs DMSO), 5 days (fraction); higher = more cells survive
[1] = compound: CC1=C(C=CC(=C1)[N+](=O)[O-])NS(=O)(=O)C2=C(C=CC(=C2)Cl)Cl [FH535] + Nc1ncn([C@H]2C[C@H](O)[C@@H](CO)O2)c(=O)n1 [Decitabine] (partner 2 µM)
Method in brief: (§1)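 One day after seeding in 1536-well plates, lung cancer cell lines were dosed by pin tool. Dosing was either single-drug or a fixed anchor-drug dose plus five library-drug doses (not always all listed) in √10 steps. After 5 days, nuclei were stained in one fix-and-stain step and counted on 4× images, and relative viability is the nuclei count of treated wells over that of vehicle wells, given as the median of duplicate plates.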

[2] = compound: CC1=C(C=CC(=C1)[N+](=O)[O-])NS(=O)(=O)C2=C(C=CC(=C2)Cl)Cl [FH535] + O=C(CCCCCCC(=O)Nc1ccccc1)NO [Vorinostat] (partner 1 µM)
Method in brief: as §1

[3] = compound: CC1=C(C=CC(=C1)[N+](=O)[O-])NS(=O)(=O)C2=C(C=CC(=C2)Cl)Cl [FH535] + Cc1nc(NC(=O)N2CCC[C@H]2C(N)=O)sc1-c1ccnc(C(C)(C)C(F)(F)F)c1 [Alpelisib] (partner 2 µM)
Method in brief: as §1

[4] = compound: CC1=C(C=CC(=C1)[N+](=O)[O-])NS(=O)(=O)C2=C(C=CC(=C2)Cl)Cl [FH535] + Nc1nc2[nH]cc(CCc3ccc(C(=O)N[C@@H](CCC(=O)O)C(=O)O)cc3)c2c(=O)[nH]1 [Pemetrexed] (partner 0.2 µM)
Method in brief: as §1

[5] = compound: CC1=C(C=CC(=C1)[N+](=O)[O-])NS(=O)(=O)C2=C(C=CC(=C2)Cl)Cl [FH535] + O=C(c1cc(Cc2n[nH]c(=O)c3ccccc23)ccc1F)N1CCN(C(=O)C2CC2)CC1 [Olaparib] (partner 8 µM)
Method in brief: as §1

Row | Cell Line | relative viability ([1]; first compound 0.04 µM) | relative viability ([1]; first compound 0.1265 µM) | relative viability ([1]; first compound 0.4 µM) | relative viability ([1]; first compound 1.265 µM) | relative viability ([2]; first compound 0.04 µM) | relative viability ([2]; first compound 0.1265 µM) | relative viability ([2]; first compound 0.4 µM) | relative viability ([2]; first compound 1.265 µM) | relative viability ([3]; first compound 0.04 µM) | relative viability ([3]; first compound 0.1265 µM) | relative viability ([3]; first compound 0.4 µM) | relative viability ([3]; first compound 1.265 µM) | relative viability ([4]; first compound 0.04 µM) | relative viability ([4]; first compound 0.1265 µM) | relative viability ([4]; first compound 0.4 µM) | relative viability ([4]; first compound 1.265 µM) | relative viability ([5]; first compound 0.04 µM) | relative viability ([5]; first compound 0.1265 µM) | relative viability ([5]; first compound 0.4 µM) | relative viability ([5]; first compound 1.265 µM)
1 | NCI-H2347 | 0.594 | 0.678 | 0.614 | 0.572 | 0.753 | 0.681 | 0.608 | 0.52 | 1.01 | 1.09 | 0.966 | 0.837 | 0.523 | 0.405 | 0.43 | 0.41 | 0.525 | 0.595 | 0.553 | 0.498
2 | HCC-827 | 0.297 | 0.334 | 0.323 | 0.296 | 0.701 | 0.846 | 0.869 | 0.664 | 0.954 | 0.972 | 0.926 | 0.446 | 0.237 | 0.246 | 0.216 | 0.263 | 0.627 | 0.676 | 0.574 | 0.359
3 | HCC-78 | 0.541 | 0.673 | 0.573 | 0.529 | 0.408 | 0.429 | 0.479 | 0.414 | 0.345 | 0.396 | 0.361 | 0.302 | 0.837 | 0.868 | 0.904 | 0.871 | 0.695 | 0.764 | 0.885 | 0.673
4 | NCI-H23 | 0.299 | 0.31 | 0.347 | 0.318 | 0.399 | 0.535 | 0.564 | 0.378 |  | 0.761 | 0.636 | 0.631 | 0.517 | 0.782 | 0.625 | 0.436 | 0.255 | 0.331 | 0.3 | 0.273
5 | NCI-H1975 | 0.375 | 0.383 | 0.351 | 0.365 | 0.651 | 0.744 | 0.675 | 0.622 | 0.614 | 0.682 | 0.607 | 0.487 | 0.286 | 0.309 | 0.277 | 0.275 | 0.868 | 0.877 | 0.718 | 0.624
6 | COR-L23 | 0.302 | 0.424 | 0.444 | 0.314 | 0.442 | 0.462 | 0.422 | 0.343 | 0.799 | 0.718 | 0.681 | 0.499 | 0.188 | 0.192 | 0.2 | 0.205 | 0.375 | 0.35 | 0.309 | 0.244
7 | UMC-11 | 0.609 | 0.529 | 0.594 | 0.576 | 0.346 | 0.384 | 0.309 | 0.469 | 0.939 | 1.13 | 0.96 | 0.857 | 0.653 | 0.799 | 0.788 | 0.763 | 0.288 | 0.335 | 0.367 | 0.343
8 | NCI-H2126 | 0.59 | 0.582 | 0.574 | 0.415 | 0.72 | 0.782 | 0.727 | 0.567 | 0.744 | 0.744 | 0.718 | 0.626 | 0.639 | 0.659 | 0.662 | 0.536 | 0.928 | 0.896 | 0.822 | 0.525
